Assay results from patent US5378475A, “Sustained release drug delivery devices” (priority 1991, dated 1995).

Assays:
[1] = Diffusion/release of 5-FU through PVA membranes; assay type: in vitro ADME; settings: heat treated PVA membrane
Description: Subconjunctival administration of 5-FU as an adjunct to filtration surgery in high risk glaucoma patients is attended by the necessity of multiple subconjunctival injections and the potentially serious complications due to delayed wound healing. Alternative delivery systems have been proposed including liposomes, topical administration, and sustained release polymers. […] Therefore, the rate of release was further decreased by layering EVA within the PVA to create a membrane system that was 6×8 mm in size.

[2] = J. Ocular Pharmacol. 1988;1062:231; cited from earlier work
[3] = J. Ocular Pharmacol. 1988;1062:231; cited from earlier work; remark: listed apart in the source
[4] = Device/drug stability after heat treatment (Example 2); assay type: physicochemical
rabbit eye = system: rabbit eye; set-up: species or system New Zealand albino rabbits; settings: in vivo
Procedure: New Zealand albino rabbits weighing 1.5 to 2 kg were used in this study. Anesthesia was provided with intramuscular ketamine HCl (40 mg/kg), attopine sulfate (0.1 mg/kg), xylazine HCl (10 mg/kg) and topical proparacaine (0.5%).
A baseline photopic electroretinogram (ERG) was recorded preoperatively in each rabbit using a corneal contact lens. A Gansfeld stimulus was used to improve standardization of results. After sedation, the rabbits were placed inside a Gansfeld stimulator 20 cm away from the flash unit. Flash (cone and rod response) and flicker (cone response) ERGs were done under light adapted conditions. Graphic measurements were recorded, and the waveform amplitudes and implicit times were calculated.
This was done because the pars plana of the New Zealand albino rabbit is poorly developed and it was therefore necessary to implant the devices and take vitreous samples through retina. The ERG was repeated four weeks later immediately prior to insertion of the device. […]
Vitreous samples were periodically removed using a 20 gauge needle on a tuberculin syringe. […] After removal, vitreous samples were stored at -60° C until analyzed by HPLC. […]
Vitreous samples were not collected from the treated eyes. […] In this group, devices were removed from the eyes and the amount of GCV still present determined by HPLC. […]

rabbit retina = test: 6 mg bolus dose of intravitreal GCV: retinal toxicity in rabbit (Example 3); assay type: in vivo, New Zealand albino rabbits; settings: 6 mg bolus dose intravitreal, two eyes
CMV retinitis [5] = settings: intravitreal injections of 200 to 400 μg once or twice weekly; cited from earlier work
CMV retinitis [6] = settings: intravenous; cited from earlier work
AIDS patients = settings: human, in vivo; cited from earlier work

O=c1[nH]cc(F)c(=O)[nH]1 [5-FU, 5-fluorouracil]
effect of heat treating the PVA membrane on 5-FU release rates [1]: release rates could be markedly decreased | permeability of EVA to 5-FU [2]: EVA was impermeable to 5-FU | release of 5-FU through PVA [3]: PVA provided a linear release

Nc1nc(O)c2ncn(COC(CO)CO)c2n1 [GCV, ganciclovir]
drug loss or decomposition after heat treatment of ganciclovir pellet ([4]; HPLC analysis): no apparent drug loss or decomposition | near IR after heat treatment ([4]; individual component): no change after heat treatment | observable retinal toxicity (rabbit eye): No observable retinal toxicity | toxicity by indirect ophthalmoscopy (rabbit retina): no evidence of toxicity | effect on CMV retinitis (CMV retinitis [5]): temporary remission of CMV retinitis in AIDS patients | bone marrow toxicity (CMV retinitis [6]): bone marrow toxicity limits its usefulness | effect on CMV retinitis in AIDS patients (CMV retinitis [6]): effective in the treatment of CMV retinitis in AIDS patients

Cc1cn([C@H]2C[C@H](N=[N+]=[N-])[C@@H](CO)O2)c(=O)[nH]c1=O [zidovudine]
effect in AIDS patients (AIDS patients): prolong life and improve the immune function in AIDS patients
